{"source": "patent US20260297164A1", "about": "“ANTI-FIBROTIC PEPTIDES AND USES THEREOF” (Deackt, Inc., priority 2021, published 2026)", "system": "TGF-β1-induced PI3K/Akt/mTOR, p62, IKK signaling in mouse lung fibroblasts", "assay": "Western immunoblot of signaling proteins in TGF-β1-stimulated mouse lung fibroblasts (SDC2-pep)", "format": "cell-based", "conditions": "wild type fibroblasts, TGF-β1 10 ng/ml, 24 h", "description": "FIG. 5. […] (A-C) Ptprj^fl/fl Col1a2^Cre-ER(T)+/0 mice (fibroblast-specific CD148 deficient) and Col1a2^Cre-ER(T)+/0 (WT) mice were exposed to BLM. SDC2 18-aa peptide (SDC2-pep, 0.5 mg/kg) was intranasally delivered into WT and Ptprj^fl/fl Col1a2^Cre-ER(T)+/0 mice 10 days after BLM injury. Treatments were repeated at day 12, 14, 16 and 18. (A) At 24 days after BLM exposure lungs were harvested and stained with Masson's trichrome (n=3 for saline and n=5 for BLM groups). (B) Hydroxyproline content was measured in the left lung of mice exposed to BLM (n=11) or saline (n=5). Gene expression of (C) Fn and Col1a1; and (D) connective tissue growth factor (Ctgf) in harvested lungs were measured using qPCR (n=5 for each condition). […] (E) Expression of p-AKT/Akt, p-mTOR/mTOR, p62/GAPDH p-IKKα/β/IKKα, α-SMA/GAPDH, and CD148/GAPDH was determined by Western immunoblotting (n=4), and corresponding densitometry (ImageJ software). […] (F) mRNA levels of Col1a1 and Fn were measured by qPCR (n=5 for each condition). […] Gel contractility was measured at 0, 12, and 24 h after TGF-β1 stimulation (n=6 for each condition). […] Total cell concentrations were measured in BAL fluid from Ptprj^fl/fl Col1a2^Cre-ER(T)+/0 mice and Col1a2-Cre (control) mice 21 days after BLM injury (n=5/group). […]"}
{"substance": "TGF-β1", "values": [{"measurement": "expression of p-Akt, p-mTOR, p62, p-IKKα/β, and α-SMA", "result": "increased"}]}
